Test results published in patent US20220104493A1, “HERBICIDAL COMPOUNDS” (SYNGENTA CROP PROTECTION AG, priority 2019, published 2022).
Counter-ions that a name gives are not always drawn.

What was measured:
Assay in all cases: Post-emergence efficacy, Method A
Type in all cases: in vivo
[1] = system: Ipomoea hederacea (IPOHE); conditions: 500 g/Ha, 100=total damage to plant, 0=no damage, evaluated after 7 and 14 days, read-out: Control of weed species after post-emergence application, IPOHE
[2] = system: Amaranthus palmeri (AMAPA); conditions: 500 g/Ha, 100=total damage to plant, 0=no damage, evaluated after 7 and 14 days, read-out: Control of weed species after post-emergence application, AMAPA
[3] = system: Eleusine indica (ELEIN); conditions: 500 g/Ha, 100=total damage to plant, 0=no damage, evaluated after 7 and 14 days, read-out: Control of weed species after post-emergence application, ELEIN
[4] = system: Setaria faberi (SETFA); conditions: 500 g/Ha, 100=total damage to plant, 0=no damage, evaluated after 7 and 14 days, read-out: Control of weed species after post-emergence application, SETFA
[5] = system: Lolium perenne (LOLPE); conditions: 500 g/Ha, 100=total damage to plant, 0=no damage, evaluated after 7 and 14 days, read-out: Control of weed species after post-emergence application, LOLPE
[6] = system: Euphorbia heterophylla (EPHHL); conditions: 500 g/Ha, 100=total damage to plant, 0=no damage, evaluated after 7 and 14 days, read-out: Control of weed species after post-emergence application, EPHHL
[7] = system: Chenopodium album (CHEAL); conditions: 500 g/Ha, 100=total damage to plant, 0=no damage, evaluated after 7 and 14 days, read-out: Control of weed species after post-emergence application, CHEAL
[8] = system: Echinochloa crus-galli (ECHCG); conditions: 500 g/Ha, 100=total damage to plant, 0=no damage, evaluated after 7 and 14 days, read-out: Control of weed species after post-emergence application, ECHCG
[9] = system: Digitaria sanguinalis (DIGSA); conditions: 500 g/Ha, 100=total damage to plant, 0=no damage, evaluated after 7 and 14 days, read-out: Control of weed species after post-emergence application, DIGSA

Compound | pest or weed control at 500 g/ha [1] [%] | pest or weed control at 500 g/ha [2] [%] | pest or weed control at 500 g/ha [3] [%] | pest or weed control at 500 g/ha [4] [%] | pest or weed control at 500 g/ha [5] [%] | pest or weed control at 500 g/ha [6] [%] | pest or weed control at 500 g/ha [7] [%] | pest or weed control at 500 g/ha [8] [%] | pest or weed control at 500 g/ha [9] [%]
O=C(O)C[n+]1ccc(-c2ncno2)cc1 [Compound A13] | 30 | 100 | 50 | 70 | 10 | 70 | 50 | 50 | 60
Nc1nnc(-c2cc[n+](CC(=O)O)cc2)s1 [Compound A94] | 10 | 30 | 40 | 10 | 10 | 30 | 40 | 20 | 30
Cn1nnnc1-c1cc[n+](CC(=O)O)cc1 [Compound A33] | 0 | 90 | 20 | 0 | 0 | 40 | 40 | 0 | 20
O=S(=O)([O-])C[n+]1ccc(-c2nc(Br)ns2)cc1 [Compound A96] | 30 | 100 | 90 | 80 | 100 | 100 | 100 | 100 | 100
O=C(O)CC[n+]1ccc(-c2ncns2)cc1 [Compound A7, 3-[4-(1,2,4-thiadiazol-5-yl)pyridin-1-ium-1-yl]propanoic acid chloride] | 30 | 100 | 70 | 70 | 30 | 80 | 90 | 50 | 90
N#Cc1csc(-c2cc[n+](CCC(=O)O)cc2)n1 [Compound A88] | 0 | 10 | 0 | 0 | 0 | 90 | 20 | 0 | 0
O=C(O)CC[n+]1ccc(-c2nc(C(F)(F)F)ns2)c(Br)c1 [Compound A79, 3-[3-bromo-4-[3-(trifluoromethyl)-1,2,4-thiadiazol-5-yl]pyridin-1-ium-1-yl]propanoic acid acetate] | 40 | 90 | 90 | 70 | 30 | 60 | 40 | 80 | 80
O=C(O)C[n+]1ccc(-c2nc(O)ns2)cc1 [Compound A98] | 10 | 50 | 10 | 20 | 0 | 30 | 40 | 40 | 70
O=S(=O)([O-])CC[n+]1ccc(-c2nc(C(F)(F)F)co2)cc1 [Compound A46] | 0 | 30 | 0 | 0 | 0 | 0 | 0 | 0 | 0
O=C(O)C[n+]1ccc(-c2ncsn2)cc1 [Compound A83] | 10 | 20 | 10 | 10 | 10 | 50 | 30 | 0 | 20
Cc1nnc(-c2cc[n+](CCCS(=O)(=O)[O-])cc2)o1 [Compound A36] | 30 | 70 | 10 | 10 | 0 | 60 | 60 | 10 | 30
O=S(=O)([O-])OCC[n+]1ccc(-c2csnn2)cc1 [Compound A65, 2-[4-(thiadiazol-4-yl)pyridin-1-ium-1-yl]ethyl sulfate] | 20 | 30 | 20 | 10 | 10 | 20 | 20 | 20 | 30
Cc1nnc(-c2cc[n+](CC(=O)O)cc2)s1 [Compound A95] | 10 | 40 | 60 | 10 | 0 | 10 | 30 | 20 | 10
Nc1nsc(-c2cc[n+](CCC(=O)O)cc2)n1 [Compound A92] | 20 | 100 | 20 | 60 | 10 | 80 | 60 | 60 | 80
O=S(=O)([O-])CC[n+]1ccc(-c2ncns2)cc1 [Compound A5, 2-[4-(1,2,4-thiadiazol-5-yl)pyridin-1-ium-1-yl]ethanesulfonate] | 70 | 100 | 80 | 60 | 70 | 100 | 90 | 40 | 70
O=C(O)C[n+]1ccc(-c2nccs2)cc1 [Compound A24] | 20 | 0 | 0 | 0 | 0 | 40 | 40 | 0 | 10
Cc1nc(-c2cc[n+](CCCS(=O)(=O)[O-])cc2)no1 [Compound A71] | 30 | 20 | 20 | 10 | 0 | 40 | 50 | 20 | 30
